Results: patent US20250339409A1, “USES OF PAN BET INHIBITORS” (VYNE THERAPEUTICS INC., priority 2021, published 2025)
Marks after values point to notes of the source that are not given here.

Test system: anti collagen antibodies induced arthritis (ACAIA)
Assay: Anti collagen antibodies induced arthritis (ACAIA) in mice, intra-articular treatment: paw thickness, arthritis clinical score, body weight;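 note: mouse arthritis induced by IV anti-collagen mAb on day 0 plus IP LPS on day 4, with body weight, caliper paw thickness and 0-4 paw score tracked against a day 0 baseline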
[1] = 0.01 mg/kg IA (Group 5), Baseline
[2] = 0.01 mg/kg IA (Group 5), Day 10
[3] = 0.01 mg/kg IA (Group 5), Day 12
[4] = 0.1 mg/kg IA (Group 4), Baseline

Cn1cc(-c2cccc(O)c2Oc2ccccc2)c2cc[nH]c2c1=O [BETi1]
Clinical score of treated leg (Avg.) [1]: 0.00 points
Paw thickness Avg. Delta untreated -treated [1]: −0.08 mm
Paw thickness of treated leg (Avg.) [1]: 2.06 mm
Paw thickness of untreated leg (Avg.) [1]: 1.98 mm
Percent change of weight per day (Av) [1]: 100.00%
Δ clinical score untreated -treated, Avg. Delta [1]: 0.00 points
Clinical score of treated leg (Avg.) (0.01 mg/kg IA (Group 5), Day 3): 0.00 points
Paw thickness Avg. Delta untreated -treated (0.01 mg/kg IA (Group 5), Day 3): 0.02 mm
Paw thickness of treated leg (Avg.) (0.01 mg/kg IA (Group 5), Day 3): 2.12 mm
Paw thickness of untreated leg (Avg.) (0.01 mg/kg IA (Group 5), Day 3): 2.14 mm
Percent change of weight per day (Av) (0.01 mg/kg IA (Group 5), Day 3): 99.39%
Δ clinical score untreated -treated, Avg. Delta (0.01 mg/kg IA (Group 5), Day 3): 0.00 points
Clinical score of treated leg (Avg.) (0.01 mg/kg IA (Group 5), Day 4): 0.00 points
Paw thickness Avg. Delta untreated -treated (0.01 mg/kg IA (Group 5), Day 4): 0.00 mm
Paw thickness of treated leg (Avg.) (0.01 mg/kg IA (Group 5), Day 4): 2.18 mm
Paw thickness of untreated leg (Avg.) (0.01 mg/kg IA (Group 5), Day 4): 2.18 mm
Percent change of weight per day (Av) (0.01 mg/kg IA (Group 5), Day 4): 96.62%
Δ clinical score untreated -treated, Avg. Delta (0.01 mg/kg IA (Group 5), Day 4): 0.00 points
Clinical score of treated leg (Avg.) (0.01 mg/kg IA (Group 5), Day 5): 0.00 points
Paw thickness Avg. Delta untreated -treated (0.01 mg/kg IA (Group 5), Day 5): 0.00 mm
Paw thickness of treated leg (Avg.) (0.01 mg/kg IA (Group 5), Day 5): 2.18 mm
Paw thickness of untreated leg (Avg.) (0.01 mg/kg IA (Group 5), Day 5): 2.17 mm
Percent change of weight per day (Av) (0.01 mg/kg IA (Group 5), Day 5): 89.80%
Δ clinical score untreated -treated, Avg. Delta (0.01 mg/kg IA (Group 5), Day 5): 0.00 points
Clinical score of treated leg (Avg.) (0.01 mg/kg IA (Group 5), Day 6): 0.71 points
Paw thickness Avg. Delta untreated -treated (0.01 mg/kg IA (Group 5), Day 6): 0.05 mm
Paw thickness of treated leg (Avg.) (0.01 mg/kg IA (Group 5), Day 6): 2.34 mm
Paw thickness of untreated leg (Avg.) (0.01 mg/kg IA (Group 5), Day 6): 2.39 mm
Percent change of weight per day (Av) (0.01 mg/kg IA (Group 5), Day 6): 88.03%
Δ clinical score untreated -treated, Avg. Delta (0.01 mg/kg IA (Group 5), Day 6): 0.14 points
Clinical score of treated leg (Avg.) (0.01 mg/kg IA (Group 5), Day 7): 1.86 points
Paw thickness Avg. Delta untreated -treated (0.01 mg/kg IA (Group 5), Day 7): 0.02 mm
Paw thickness of treated leg (Avg.) (0.01 mg/kg IA (Group 5), Day 7): 2.60 mm
Paw thickness of untreated leg (Avg.) (0.01 mg/kg IA (Group 5), Day 7): 2.62 mm
Percent change of weight per day (Av) (0.01 mg/kg IA (Group 5), Day 7): 91.87%
Δ clinical score untreated -treated, Avg. Delta (0.01 mg/kg IA (Group 5), Day 7): −0.29 points
Clinical score of treated leg (Avg.) (0.01 mg/kg IA (Group 5), Day 8): 1.86 points
Paw thickness Avg. Delta untreated -treated (0.01 mg/kg IA (Group 5), Day 8): −0.01 mm
Paw thickness of treated leg (Avg.) (0.01 mg/kg IA (Group 5), Day 8): 2.64 mm
Paw thickness of untreated leg (Avg.) (0.01 mg/kg IA (Group 5), Day 8): 2.63 mm
Percent change of weight per day (Av) (0.01 mg/kg IA (Group 5), Day 8): 89.85%
Δ clinical score untreated -treated, Avg. Delta (0.01 mg/kg IA (Group 5), Day 8): −0.14 points
Clinical score of treated leg (Avg.) [2]: 2.14 points
Paw thickness Avg. Delta untreated -treated [2]: 0.05 mm
Paw thickness of treated leg (Avg.) [2]: 2.68 mm
Paw thickness of untreated leg (Avg.) [2]: 2.73 mm
Percent change of weight per day (Av) [2]: 89.71%
Δ clinical score untreated -treated, Avg. Delta [2]: 0.00 points
Clinical score of treated leg (Avg.) [3]: 2.43 points
Paw thickness Avg. Delta untreated -treated [3]: −0.20 mm
Paw thickness of treated leg (Avg.) [3]: 3.01 mm
Paw thickness of untreated leg (Avg.) [3]: 2.80 mm
Percent change of weight per day (Av) [3]: 92.75%
Δ clinical score untreated -treated, Avg. Delta [3]: −1.00 points
Clinical score of treated leg (Avg.) [4]: 0.00 points
Paw thickness Avg. Delta untreated -treated [4]: −0.04 mm
Paw thickness of treated leg (Avg.) [4]: 2.06 mm
Paw thickness of untreated leg (Avg.) [4]: 2.01 mm
Percent change of weight per day (Av) [4]: 100.00%
Δ clinical score untreated -treated, Avg. Delta [4]: 0.00 points
Clinical score of treated leg (Avg.) (0.1 mg/kg IA (Group 4), Day 3): 0.00 points
Paw thickness Avg. Delta untreated -treated (0.1 mg/kg IA (Group 4), Day 3): −0.05 mm
Paw thickness of treated leg (Avg.) (0.1 mg/kg IA (Group 4), Day 3): 2.18 mm
Paw thickness of untreated leg (Avg.) (0.1 mg/kg IA (Group 4), Day 3): 2.14 mm
Percent change of weight per day (Av) (0.1 mg/kg IA (Group 4), Day 3): 101.00%
Δ clinical score untreated -treated, Avg. Delta (0.1 mg/kg IA (Group 4), Day 3): 0.00 points
Clinical score of treated leg (Avg.) (0.1 mg/kg IA (Group 4), Day 4): 0.00 points
Paw thickness Avg. Delta untreated -treated (0.1 mg/kg IA (Group 4), Day 4): 0.04* mm
Paw thickness of treated leg (Avg.) (0.1 mg/kg IA (Group 4), Day 4): 2.17 mm
Paw thickness of untreated leg (Avg.) (0.1 mg/kg IA (Group 4), Day 4): 2.21 mm
Percent change of weight per day (Av) (0.1 mg/kg IA (Group 4), Day 4): 99.30%
Δ clinical score untreated -treated, Avg. Delta (0.1 mg/kg IA (Group 4), Day 4): 0.00 points
Clinical score of treated leg (Avg.) (0.1 mg/kg IA (Group 4), Day 5): 0.00 points
Paw thickness Avg. Delta untreated -treated (0.1 mg/kg IA (Group 4), Day 5): −0.02 mm
Paw thickness of treated leg (Avg.) (0.1 mg/kg IA (Group 4), Day 5): 2.17 mm
Paw thickness of untreated leg (Avg.) (0.1 mg/kg IA (Group 4), Day 5): 2.15 mm
Percent change of weight per day (Av) (0.1 mg/kg IA (Group 4), Day 5): 91.11%
Δ clinical score untreated -treated, Avg. Delta (0.1 mg/kg IA (Group 4), Day 5): 0.00 points
Clinical score of treated leg (Avg.) (0.1 mg/kg IA (Group 4), Day 6): 1.57** points
Paw thickness Avg. Delta untreated -treated (0.1 mg/kg IA (Group 4), Day 6): 0.06 mm
Paw thickness of treated leg (Avg.) (0.1 mg/kg IA (Group 4), Day 6): 2.57* mm
Paw thickness of untreated leg (Avg.) (0.1 mg/kg IA (Group 4), Day 6): 2.63 mm
Percent change of weight per day (Av) (0.1 mg/kg IA (Group 4), Day 6): 88.63%
Δ clinical score untreated -treated, Avg. Delta (0.1 mg/kg IA (Group 4), Day 6): −0.43 points
Clinical score of treated leg (Avg.) (0.1 mg/kg IA (Group 4), Day 7): 2.00 points
Paw thickness Avg. Delta untreated -treated (0.1 mg/kg IA (Group 4), Day 7): 0.05 mm
